Patent US8304234B2, “Compositions and methods for delivery of genetic material” (The Trustees of the Universtiy of Pennsylvania, priority 1993, dated 2012)

What was measured:
[1] = tested on: tumor cells transfected with DNA encoding neu; assay: Tumor challenge model, tumor cells transfected with DNA encoding neu
Source text: In experiments designed to compare the immunogenic response elicited by genetic vaccination and protein vaccination, animal models were designed using tumor cells that specifically express a foreign target protein. Three immune competent mouse models have been developed which express foreign antigens. Three clonal tumor cell lines which are derived from the Balb/c mouse strain are used. […] Subclones have been selected which can display foreign antigens in an unrecognized form. […] Using these models, the immune response elicited by genetic vaccination against an antigen can be measured.
A DNA construct was designed to test the effectiveness of a genetic vaccine against human p185neu in mice. […] The animal model used was described above. Tumor cells were transfected with DNA encoding neu, confirmed to express the protein and implanted into the animal. Controls included untransfected tumor lines.
Controls included unvaccinated animals and animals administered the p185neu protein.

[2] = tested on: tumor cells transfected with DNA encoding GA733; assay: Tumor challenge model, tumor cells transfected with DNA encoding GA733
Source text: Using these models, the immune response elicited by genetic vaccination against an antigen can be measured.
A DNA construct was designed to test the effectiveness of a genetic vaccine against human GA733 in mice. […] The animal model used was described above. Tumor cells were transfected with DNA encoding GA733, confirmed to express the protein and implanted into the animal. Controls included untransfected tumor lines.
Genetically immunized animals were vaccinated with plasmid pGA733-2, described in Example 14, following the method described above. Controls included unvaccinated animals and animals administered the GA733 protein.

## p185 protein: p185neu protein administered to control animals
[1]; neu-transfected tumors, vaccinated mice
  effect on transfected tumors: some reduction in tumor size
[1]; vaccinated mice bearing tumors
  effect on mortality: no effect on mortality

B1: GA733 protein: GA733 protein administered to control animals (protein, UniProt P16422 24-314, looked up)
Epithelial cell adhesion …: QEECVCENYKLAVNCFVNNNRQCQCTSVGAQNTVICSKLAAKCLVMKAEMNGSKLGRRAKPEGALQNNDGLYDPDCDESGLFKAKQCNGTSMCWCVNTAGVRRTDKDTEITCSERVRTYWIIIELKHKAREKPYDSKSLRTALQKEITTRYQLDPKFITSILYENNVITIDLVQNSSQKTQNDVDIADVAYYFEKDVKGESLFHSKKMDLTVNGEQLDLDPGQTLIYYVDEKAPEFSMQGLKAGVIAVIVVVVIAVVAGIVVLVISRKKRMAKYEKAEIKEMGEMHRELNA
[2]; GA733-transfected tumors, vaccinated mice
  effect on transfected tumors: some reduction in tumor size
[2]; vaccinated mice bearing tumors
  effect on mortality: no effect on mortality
